Assays:
submissive rats = experiment: Dominant-Submissive Competition: Reduction of Submissive Behavior Model (RSBM); type: in vivo, Male Sprague Dawley rats
Method: Dominance and submissiveness, defined in a competition test and measured as the relative success of two food-restricted rats to gain access to a feeder, form a behavioral paradigm—the Dominant Submissive Relationship (DSR). This paradigm results in two models which are predictive of ability of test compounds (drugs) to treat mood disorders.
Test compounds are evaluated for either their ability to inhibit the dominant behavior of rats taking food at the expense of an opponent (reduction of dominant behavior model or RDBM) and thus their potential as treatments for mania; or for their ability to increase the competitive behavior of submissive rats losing such encounters (reduction of submissive behavior model or RSBM) and thus their potential as treatments for depression; (Malatynska, E., and Knapp, R. J., Neuroscience and Biobehavioral Review, 29 (2005) 715-737). […]
The basic testing apparatus consisted of two chambers connected with a tunnel only large enough to allow one rat to pass through at a time. […] During the five-minute daily sessions, time spent in the feeder zone by each rat was recorded by the video tracking software and saved into a text file.
The test began with a random assignment of rats into pairs. […] The time spent in the feeder zone by each animal was recorded. […]

[1] = Drug concentration in terminal plasma and brain of RSBM rats (LC-MS-MS); type: in vivo, Male Sprague Dawley rats; conditions: submissive rats treated with increasing doses (6, 30, 60 mg/kg p.o. BID)
Description: Rats were housed four per cage. Access to food was restricted to one hour per day after testing on Monday through Thursday. After testing on Friday, rats had free access to food until being fasted again on Sunday. At no time were the rats deprived of water. The food deprivation periods used had little effect on weight gain as the average weight of rats was about 300 g at the end of the study. At the conclusion of experiment rats were sacrificed by decapitation, the trunk blood and brains were collected for in vitro experiments and drug concentration measurements.
Terminal blood samples (0.5-1.0 mL) were collected post experiment into heparinized tubes. Blood samples were centrifuged for cell removal, and 200 μL of plasma supernatant was then transferred to a clean vial, placed on dry ice, and subsequently stored in a −80° C. freezer prior to analysis. Two hundred microliters of acetonitrile containing internal standard was added to 100 μL of plasma or brain tissue to precipitate proteins and/or tissue residues. Samples were centrifuged and supernatant removed for analysis by liquid chromatography-triple quadruple mass spectrometry (LC-MS-MS). […] Calibration standards were prepared in the range of 0.01 to 10 μM for quantitation. […]

Male NMRI mice = experiment: Mouse Tail Suspension In Vivo Assay; conditions: for Immobilization Time (sec); (mean ± SEM): single dose 30 min prior to tail suspension
Method: The tail suspension test (TST) is an acute test of anti-depressant activity.
Male NMRI mice (25-30 g; n=13-15 mice per dose) were given a single dose of vehicle (aqueous solution of 1 equivalent tartaric acid+0.45% NaCl+10% cyclodextrin, i.p.), imipramine (20 mg/kg, i.p. in an aqueous solution of 0.9% NaCl) or Compound #1 (at 5, 10, 20, 40 or 80 mg/kg, i.p.) 30 min prior to tail suspension. In this test, the mice were submitted to an unpleasant and inescapable situation (hanging by the tail) for 6 min. Once suspended, motor activity diminished rapidly and the mice became immobile. A compound was considered active as an antidepressant in this model, when there was a reduction in immobility time. Viewpoint video-tracking software was utilized to record immobility time.
Therefore, a compound which is not active in this model may nonetheless be active as an antidepressant.

Male C57BL/6 mice = experiment: Mouse Forced Swim Test; type: in vivo; conditions: not statistically significant (p=0.19)
Method: The forced swim test (FST) is an acute test of anti-depressant activity. Note that in this test, antidepressant-like compounds such as tricyclics, MAO inhibitors, SSRIs and others show activity, although the level of measured activity can vary with strain differences.
Male C57BL/6 mice (˜25 g; n=10 mice per dose) were given a single dose of vehicle (an aqueous solution of 1 equivalent tartaric acid+0.45% NaCl+10% cyclodextrin, s.c.), Compound #1 (at 5, 10, 20, 40 or 80 mg/kg, s.c.) or imipramine (10 mg/kg, i.p. in an aqueous solution of 0.9% NaCl) 30 min prior to entrance into the swim chamber. In this test, mice were placed in a water-filled cylinder in which they were unable to escape or touch the bottom of the chamber for 6 min. Once immersed in water, motor activity diminished rapidly and the mice became immobile. Viewpoint video-tracking software was utilized to record immobility time. Other common behaviors such as swimming and climbing activity were not measured in this study.

SMILES | statistical significance of the reduction of submissive behavior (submissive rats; after 17 days of treatment with 60 mg/kg, p<0.01) | reduction of submissive behavior (submissive rats; submissive rats treated p.o. BID at 6, 30 or 60 mg/kg) | exposure in plasma and brain [1] | Immobilization Time (sec); (mean ± SEM) (Male NMRI mice; 5 mpk i.p.) [s] | Immobilization Time (sec); (mean ± SEM) (Male NMRI mice; 10 mpk i.p.) [s] | Immobilization Time (sec); (mean ± SEM) (Male NMRI mice; 20 mpk i.p.) [s] | Immobilization Time (sec); (mean ± SEM) (Male NMRI mice; 40 mpk i.p.) [s] | Immobilization Time (sec); (mean ± SEM) (Male NMRI mice; 80 mpk i.p., increase resembled sedation (p=0.003)) [s] | Immobilization Time (sec); (mean ± SEM) (Male NMRI mice; 80 mpk i.p., increase resembled sedation (p=0.003), listed as #1) [s] | decrease in immobility time (Male NMRI mice; 20 mg/kg i.p. versus vehicle (71 sec), p=0.0004) [%] | Immobilization Time (sec); (mean ± SEM) (Male NMRI mice; 20 mpk i.p., listed as imipramine) [s] | decrease in immobility time (Male C57BL/6 mice; 10 mg/kg i.p. versus vehicle (152 sec)) [%] | immobility time (Male C57BL/6 mice; 10 mg/kg i.p., vehicle=152 sec) [s]
NS(=O)(=O)NCc1csc2ccccc12 [Compound #1, N-(benzorblthien-3-vimethyl)-sulfamide] | statistically significant | reduced submissive behavior in a dose-dependent manner | linear increase in exposure both in plasma and brain | 66.1 ± 10.1 | 96.4 ± 12.4 | 110.1 ± 15.8 | 100.5 ± 13.9 | 160 | 160.4 ± 10.7 | – | – | – | –
CN(C)CCCN1c2ccccc2CCc2ccccc21 [Imipramine, reference compound] | – | – | – | – | – | 18.0 ± 5.8 | – | – | – | 75 | 18 | 20 | 122
